The values below are quoted from earlier work in patent US8110226B2, “Drug formulations having inert sealed cores” (Mylan Pharmaceuticals Inc., priority 2007, dated 2012).

Molecules are shown by their SMILES.

The conditions of the series: first pKa of non-polymeric pH modifying acid.

What is called pKa is the negative logarithm of the acid dissociation constant. `CC(O)C(=O)O` (stereo not shown) [Lactic Acid]: the pKa is on record as 4.14.
